Experiments:
healthy subjects = test: Study S.241.2.106: colonic motility index; type: in vivo, human; details: for colonic motility index, Comparison to Placebo: Ratio: ANOVA; for colonic motility index: arith. mean
Protocol: The effect of cilansetron on colonic motility was evaluated in a randomized, double-blind, placebo-controlled, 3-way crossover study in 12 healthy male and female subjects (ITT population), aged 24-34 years. Subjects received cilansetron 4 mg, cilansetron 8 mg, or placebo orally TID for 7 days during each of the treatment periods, with a 7-day washout between periods. Colonic motility assessments were done on the last day of each treatment period, around the time of the last dose. Subjects were fasted for 12 hours prior to start of colonic assessments. Colonic motor activity was recorded from 30 minutes prior to dosing until 240 minutes postdose. A high-calorie meal was administered at 1 hour postdose and 1 mg neostigmine was administered intramuscularly at 2.5 hours postdose. The main objective of the assessments was to establish whether cilansetron was able to reduce colonic motor activity after meal ingestion and after neostigmine injection. The main parameter of interest was the motility index, which was measured in intervals of ten minutes for a total period of 150 minutes postprandially. The time intervals of major interest were the 30-minute interval after start of meal ingestion (91-120 minutes) and the 30-minute interval after neostigmine injection (181-210 minutes). An ANOVA was used to compare the motility indices between treatments.

[1] = system: healthy, elderly subjects; test: Study K.241.5013: gastric emptying time, elderly, 4 mg TID; type: in vivo, human; details: 4 mg TID oral 14 days, mean (SD)
Text: The effect of cilansetron on gastric emptying time and colonic transit time has been studied in 1 clinical study in healthy young subjects and 2 studies in elderly subjects. For measurement of gastric emptying time, breath samples for the determination of the ^12C/^13C ratio were taken on the last day of each treatment period immediately after ingestion of a ^13C labeled meal. The patients' breath was collected in separate 15-minute intervals, for four hours in total. ^13CO2 measurements were performed with an isotope ratio mass spectrometer. The half-life (TK) and lag-time (Tlag), which describe the duration of gastric emptying, were used as the primary parameters to evaluate gastric emptying time. In all 3 studies, colonic transit time was measured by administration of radio-opaque markers for the last six days of each treatment period, followed by a single abdominal X-ray image at 24 hours after ingestion of the last set of markers. The numbers of markers within the colon were used to calculate segmental (right colon, left colon, and rectosigmoid) and total colonic transit time.
Studies K.241.5013 and K.241.5014 were randomized, double-blind, placebo-controlled, 2-way crossover studies in 8 healthy male and female elderly subjects, each (ITT population, aged 64-83 years in K.241.5013 and 66-84 years in K.241.5014). […]

[2] = After Meal Ingestion, 4 mg TID oral 7 days
[3] = After Meal Ingestion, 8 mg TID oral 7 days
[4] = After Neostigmine, 4 mg TID oral 7 days
[5] = After Neostigmine, 8 mg TID oral 7 days

Protocol for cytochrome P450 enzymes: An in vitro study using human hepatic microsomes evaluated the effect of some enzyme inhibitors on the metabolism of cilansetron (100 μM).

Cc1nccn1C[C@H]1CCc2c(c3cccc4c3n2CCC4)C1=O [Cilansetron, (R)-(−)-4,5,6,8,9,10-hexahydro-10-[(2-methyl-1H-imidazol-1-yl)methyl]-11H-pyrido-[3,2,1-jk]-carbazol-11-one]
Inhibition of any other cytochrome P450 enzyme activity (cytochrome P450 enzymes): no inhibition | colonic motility index, Comparison to Placebo: Ratio (healthy subjects; [2]): 101% | colonic motility index (healthy subjects; [2]): 20358 | colonic motility index, Comparison to Placebo: Ratio (healthy subjects; [3]): 106% | colonic motility index (healthy subjects; [3]): 23478 | colonic motility index, Comparison to Placebo: Ratio (healthy subjects; [4]): 192% | colonic motility index (healthy subjects; [4]): 50580 | colonic motility index, Comparison to Placebo: Ratio (healthy subjects; [5]): 162% | colonic motility index (healthy subjects; [5]): 48691 | gastric emptying time Tlag [1]: 122 (24) min | gastric emptying time T½ [1]: 183 (32) min
